Test results: PubChem BioAssay (NCI)
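Values below derive from 48-hour exposures of cells grown in 96-well plates, with endpoints linearly interpolated between the two concentrations bracketing the appropriate inhibition level. Definition used: TGI = concentration required for complete inhibition of growth.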

Experiments:
Test in all cases: NCI-60 cell line screen, 48 h
[1] = system: KM12 colon
[2] = system: SW-620 colon
[3] = system: RPMI-8226 leukemia
[4] = system: OVCAR-5 ovarian
[5] = system: HL-60(TB) leukemia
[6] = system: NCI-H522 lung
[7] = system: RXF-631 renal
[8] = system: SK-OV-3 ovarian
[9] = system: SNB-19 CNS
[10] = system: UACC-62 melanoma
[11] = system: OVCAR-8 ovarian
[12] = system: IGROV1 ovarian
[13] = system: DMS 273 small cell lung
[14] = system: K-562 leukemia
[15] = system: OVCAR-4 ovarian
[16] = system: SF-268 CNS
[17] = system: DMS 114 small cell lung
[18] = system: M19-MEL melanoma
[19] = system: SK-MEL-2 melanoma
[20] = system: KM20L2 colon
[21] = system: SN12C renal
[22] = system: A498 renal
[23] = system: HOP-92 NSCLC
[24] = system: CCRF-CEM leukemia
[25] = system: HCC-2998 colon
[26] = system: COLO 205 colon
[27] = system: SK-MEL-5 melanoma
[28] = system: MALME-3M melanoma
[29] = system: M14 melanoma
[30] = system: HT29 colon
[31] = system: NCI-H460 lung
[32] = system: SF-295 CNS
[33] = system: RXF 393 renal
[34] = system: MOLT-4 leukemia
[35] = system: A549 NSCLC
[36] = system: HCT-15 colon
[37] = system: HCT-116 colon
[38] = system: U251 CNS
[39] = system: LOX IMVI melanoma
[40] = system: SNB-78 CNS
[41] = system: DLD-1 colon
[42] = system: 786-0 renal
[43] = system: HOP-62 NSCLC
[44] = system: TK-10 renal
[45] = system: ACHN renal
[46] = system: EKVX NSCLC
[47] = system: XF 498 CNS
[48] = system: SF-539 CNS
[49] = system: OVCAR-3 ovarian
[50] = system: SK-MEL-28 melanoma
[51] = system: CAKI-1 renal
[52] = system: LXFL 529 NSCLC
[53] = system: NCI-H226 lung
[54] = system: SNB-75 CNS
[55] = system: NCI-H23 lung
[56] = system: UO-31 renal
[57] = system: UACC-257 melanoma

Measured: TGI

S=C(Nc1ccccc1)Nc1ccccc1SC(/C=C/NNC1=NC(c2ccccc2)C(c2ccccc2)=NN1)c1ccccc1 (centres undefined)
> 100 µM: [1] | [2] | [3] | [4] | [5] | [6] | [7] | [8] | [9] | [10] | [11] | [12] | [13] | [14] | [15] | [16] | [17] | [18] | [19] | [20] | [21] | [22] | [24] | [25] | [26] | [27] | [28] | [29] | [30] | [31] | [32] | [34] | [35] | [36] | [37] | [38] | [39] | [40] | [41] | [42] | [44] | [45] | [46] | [47] | [48] | [49] | [50] | [51]
64.5 µM: [43]
44.6 µM: [33]
84.2 µM: [23]

COc1ccc(OC)c2[nH]c(Sc3c([N+](=O)[O-])ncn3C)nc12
61.6 µM: [44]
50.2 µM: [18]
37.8 µM: [21]
51.2 µM: [46]
60.1 µM: [33]
38.4 µM: [25]
50.1 µM: [11]
29.3 µM: [28]
45.6 µM: [49]
42.6 µM: [51]
51.9 µM: [55]
27.3 µM: [52]
48.8 µM: [41]
35.4 µM: [27]
93.5 µM: [56]
30.1 µM: [57]
34.2 µM: [48]
26.6 µM: [26]
54.6 µM: [50]
97.3 µM: [22]
88.3 µM: [29]
> 100 µM: [1] | [2] | [4] | [8] | [54] | [30] | [31] | [32] | [35] | [38] | [39] | [40] | [42] | [43] | [45]
44.4 µM: [23]
41.3 µM: [13]
35.9 µM: [7]
68.6 µM: [16]
47.4 µM: [53]
64.7 µM: [15]
43.5 µM: [47]
51.6 µM: [37]
60.6 µM: [20]
35.1 µM: [17]
85.7 µM: [12]
34.1 µM: [10]
38.8 µM: [36]

COC(=O)C1=C(C(=O)OC)C2(CCCCCC2=O)OC1=O (centres undefined)
> 100 µM: [1] | [2] | [3] | [4] | [5] | [52] | [6] | [7] | [8] | [9] | [10] | [11] | [53] | [12] | [13] | [14] | [54] | [15] | [16] | [17] | [18] | [19] | [20] | [21] | [22] | [23] | [24] | [25] | [26] | [55] | [27] | [28] | [29] | [30] | [31] | [32] | [33] | [34] | [35] | [36] | [37] | [38] | [40] | [42] | [43] | [44] | [45] | [46] | [57] | [47] | [48] | [49] | [50] | [51]
